Here are results for five compounds from article PMC10940605, “Design, synthesis and in vitro anticancer activity of some new lomefloxacin derivatives” (Scientific Reports, 2024).

Each structure is given as a SMILES string.

Common to all, as to assay: NCI-60 SRB screen
Common to all, as to type: cell-based

In one experiment the test system is NCI/ADR-RES. Particulars: Homo sapiens, 10^–5 Molar, read-out: Percent growth inhibition. In outline:
(§1)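 DMSO stocks diluted in medium with gentamycin; 10^−5 M final; 48 h, 37 °C, 5% CO2, 100% humidity; TCA fix 60 min 4 °C; SRB 10 min RT; OD […]; % growth inhibition vs Tz and C.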

For a further experiment, the system named is CCRF-CEM. Particulars: Homo sapiens, 10^–5 Molar, read-out: Percent growth inhibition. In outline: (§2)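 Single-dose screen at 10^−5 M; cells grown in RPMI 1640 with 2 mM L-glutamine and FBS for 24 h, then exposed to compound for 48 h at 37 °C, 5% CO2. TCA-fixed, SRB-stained, absorbance read at […]; percentage growth inhibition calculated against time-zero and control wells.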

The next experiment concerns SF-268. Particulars: Homo sapiens; SF-268, 10^–5 Molar; read-out: Percent growth inhibition. In outline:
as §1

Another experiment has as its system ACHN. The settings on record: Homo sapiens, 10^–5 Molar, read-out: Percent growth inhibition. In outline: as §1
The test system of a further experiment is NCI-H322M. Particulars: Homo sapiens, 10^–5 Molar, read-out: Percent growth inhibition. In outline:
as §2

In the next experiment the test system is LOX IMVI. Particulars: Homo sapiens, 10^–5 Molar, read-out: Percent growth inhibition. In outline:
as §1

The next experiment deals with KM12. The settings on record: Homo sapiens; KM12, 10^–5 Molar; read-out: Percent growth inhibition. The method, boiled down: as §1
The test system of another experiment is SF-539. The settings on record: Homo sapiens; SF-539, 10^–5 Molar; read-out: Percent growth inhibition. The method, boiled down: as §2
A further experiment has as its system 786-0. Particulars: Homo sapiens; 786-0, 10^–5 Molar; read-out: Percent growth inhibition. In outline:
as §1

A further experiment has as its system T-47D. Particulars: Homo sapiens, T47D, 10^–5 Molar, read-out: Percent growth inhibition. The method, boiled down: as §1
A further experiment has as its system HS 578T. The settings on record: Homo sapiens, 10^–5 Molar, read-out: Percent growth inhibition. The method, boiled down: as §2
The next experiment deals with A549/ATCC. The settings on record: Homo sapiens, 10^–5 Molar, read-out: Percent growth inhibition. In outline: as §2
The next experiment concerns SNB-19. Particulars: Homo sapiens; SNB-19, 10^–5 Molar; read-out: Percent growth inhibition. In outline:
as §1

In the next experiment the test system is K-562. Particulars: Homo sapiens, K562; K-562, 10^–5 Molar; read-out: Percent growth inhibition. The method, boiled down: as §1
The test system of the next experiment is MCF7. Particulars: Homo sapiens; MCF7, 10^–5 Molar; read-out: Percent growth inhibition. In outline: as §2
The subject of another experiment is UO-31. Particulars: Homo sapiens; UO-31, 10^–5 Molar; read-out: Percent growth inhibition. In outline: as §2
In another experiment the test system is SNB-75. Particulars: Homo sapiens; SNB-75, 10^–5 Molar; read-out: Percent growth inhibition. In outline: as §2
The subject of a further experiment is NCI-H23. The settings on record: Homo sapiens; NCI-H23, 10^–5 Molar; read-out: Percent growth inhibition. In outline:
as §2

A further experiment concerns MALME-3M. The settings on record: Homo sapiens, 10^–5 Molar, read-out: Percent growth inhibition. In outline: as §1
For another experiment, the system named is PC-3. Particulars: Homo sapiens; PC-3, 10^–5 Molar; read-out: Percent growth inhibition. The method, boiled down:
as §1

The next experiment deals with melanoma SK-MEL-5. Particulars: Homo sapiens; SK-MEL-5, 10^–5 Molar; read-out: Percent growth inhibition. In outline:
as §1

The next experiment relates to CAKI-1. The settings on record: Homo sapiens; CAKI-1, 10^–5 Molar; read-out: Percent growth inhibition. In outline: as §2
The next experiment has as its system OVCAR-8. Particulars: Homo sapiens; OVCAR-8, 10^–5 Molar; read-out: Percent growth inhibition. The method, boiled down: as §2
The test system of a further experiment is EKVX. The settings on record: Homo sapiens, 10^–5 Molar, read-out: Percent growth inhibition. The method, boiled down:
as §2

The test system of another experiment is NCI-H226. The settings on record: Homo sapiens; NCI-H226, 10^–5 Molar; read-out: Percent growth inhibition. The method, boiled down: as §1
Another experiment relates to SW-620. Particulars: Homo sapiens; SW-620, 10^–5 Molar; read-out: Percent growth inhibition. The method, boiled down:
as §2

`CCn1cc(C(=O)O)c(=O)c2cc(F)c(N3CCN(CC(=O)Nc4ccccc4)C(C)C3)c(F)c21` (stereo not shown) [Compound 5a, 1-Ethyl-6,8-difluoro-7-(3-methyl-4-(2-oxo-2-(phenylamino)ethyl)piperazin-1-yl)-4-oxo-1,4-dihydroquinoline-3-carboxylic acid]: the inhibition at 10 µM in the experiment with NCI/ADR-RES worked out at 3.34%; with CCRF-CEM it was 3.25%; in the experiment on SF-268, 6.33%; in the experiment on ACHN, 2.19%; in the experiment on NCI-H322M, 14.3%; in the experiment with LOX IMVI it was 11.5%. Further, the inhibition at 10 µM in the experiment on KM12 came out at 0.07%; in the experiment with SF-539 it was 0.89%; in the experiment on 786-0 it was 7.47%; with T-47D, 4.6%; in the experiment with HS 578T, 8.88%; in the experiment on A549/ATCC, 2.07%. The inhibition at 10 µM in the experiment with SNB-19 was 0.85%; with K-562, 12.9%; in the experiment with MCF7 it was 7.33%; in the experiment with UO-31, 23.5%; with SNB-75 it was 13.9%; in the experiment on NCI-H23, 8.68%. Besides, the inhibition at 10 µM with MALME-3M is 2.09%; in the experiment with PC-3 it was 6.83%; with melanoma SK-MEL-5, 0.76%; with CAKI-1, 13%; with OVCAR-8, 1.7%.

For the compound `CCn1cc(C(=O)O)c(=O)c2cc(F)c(N3CCN(C(=O)c4ccccc4)C(C)C3)c(F)c21` (stereo not shown) [Compound 7a, 7-(4-Benzoyl-3-methylpiperazin-1-yl)-1-ethyl-6,8-difluoro-4-oxo-1,4-dihydroquinoline-3-carboxylic acid], the inhibition at 10 µM in the experiment on NCI/ADR-RES came out at 20.4%; with CCRF-CEM, 2.26%; with SF-268 it was 9.47%; in the experiment on ACHN, 5.78%; with NCI-H322M, 14.4%; in the experiment on LOX IMVI, 19.1%. For the same compound, the inhibition at 10 µM in the experiment on KM12 turned out to be 1.89%; in the experiment with SF-539, 10.7%; in the experiment with 786-0, 14.7%; in the experiment on T-47D it was 18.1%; with HS 578T, 18.1%; with K-562, 7.84%. Moreover, the inhibition at 10 µM stood at 6.26% in the experiment on MCF7; 28.5% with UO-31; 1.21% in the experiment with EKVX; 21.7% in the experiment on SNB-75; 4.39% with NCI-H23; 4.96% in the experiment on MALME-3M. The inhibition at 10 µM was determined as 13% with PC-3; 6.55% in the experiment with melanoma SK-MEL-5; 15.4% in the experiment on CAKI-1; 4.61% in the experiment with OVCAR-8; 2.44% in the experiment with NCI-H226.

For `CCn1cc(C(=O)O)c(=O)c2cc(F)c(N3CCN(C(=O)c4ccc(Br)cc4)C(C)C3)c(F)c21` (stereo not shown) [Compound 7b, 7-(4-(4-Bromobenzoyl)-3-methylpiperazin-1-yl)-1-ethyl-6,8-difluoro-4-oxo-1,4-dihydroquinoline-3-carboxylic acid], the inhibition at 10 µM in the experiment on NCI/ADR-RES worked out at 9.07%; in the experiment on SF-268 it was 6.79%; with SW-620 it was 0%; in the experiment on ACHN, 2.27%; in the experiment with NCI-H322M, 5.64%; in the experiment on KM12, 3.51%. The inhibition at 10 µM was found to be 9.67% in the experiment on SF-539; 0.58% in the experiment on 786-0; 6.95% with T-47D; 4.22% in the experiment with HS 578T; 1.07% with A549/ATCC; 4.45% in the experiment with SNB-19. Moreover, the inhibition at 10 µM in the experiment with K-562 came out at 0.24%; in the experiment on MCF7, 8.87%; with UO-31, 21.4%; with SNB-75, 2.37%; in the experiment with PC-3, 5.63%; in the experiment on melanoma SK-MEL-5 it was 1.22%. In addition, the inhibition at 10 µM is 13.6% in the experiment on CAKI-1 and 1.95% with NCI-H226.

In the case of `CCn1cc(C(=O)O)c(=O)c2cc(F)c(N3CCN(C(=O)c4ccc(Cl)cc4)C(C)C3)c(F)c21` (stereo not shown) [Compound 7c, 7-(4-(4-Chlorobenzoyl)-3-methylpiperazin-1-yl)-1-ethyl-6,8-difluoro-4-oxo-1,4-dihydroquinoline-3-carboxylic acid], the inhibition at 10 µM in the experiment with NCI/ADR-RES is 13.8%; in the experiment with SF-268, 7.02%; in the experiment on ACHN, 4.45%; in the experiment on NCI-H322M, 7.81%; with LOX IMVI, 4%; with KM12, 0.72%. The inhibition at 10 µM in the experiment on SF-539 came out at 5.06%; in the experiment with T-47D, 5.3%; with HS 578T, 5.57%; in the experiment on A549/ATCC, 1.75%; in the experiment on SNB-19, 6.42%; in the experiment with K-562, 1.62%. Besides, the inhibition at 10 µM in the experiment with MCF7 came out at 9.09%; in the experiment on UO-31, 23.9%; in the experiment with SNB-75 it was 9.12%; in the experiment with MALME-3M, 1.6%; in the experiment on PC-3, 9.65%; in the experiment on melanoma SK-MEL-5, 2.21%. Besides, the inhibition at 10 µM was found to be 14.9% in the experiment on CAKI-1 and 7.33% with NCI-H226.

With `CCn1cc(C(=O)O)c(=O)c2cc(F)c(N3CCN(C(=O)c4ccc([N+](=O)[O-])cc4)C(C)C3)c(F)c21` (stereo not shown) [Compound 7d, 1-Ethyl-6,8-difluoro-7-(3-methyl-4-(4-nitrobenzoyl)piperazin-1-yl)-4-oxo-1,4-dihydroquinoline-3-carboxylic acid], the inhibition at 10 µM amounted to 3.34% with NCI/ADR-RES; 7.01% with SF-268; 2.14% with ACHN; 12.7% with NCI-H322M; 9.8% in the experiment with LOX IMVI; 1.24% in the experiment on KM12. Besides, the inhibition at 10 µM came to 8.54% in the experiment with SF-539; 0.6% in the experiment with 786-0; 4.73% in the experiment on T-47D; 8.17% in the experiment with HS 578T; 3.31% in the experiment on SNB-19; 2.06% with K-562. Besides, the inhibition at 10 µM was 5.47% in the experiment with MCF7; 27.2% in the experiment on UO-31; 13.9% with SNB-75; 0.88% with MALME-3M; 12% in the experiment with PC-3; 0.86% with melanoma SK-MEL-5. The inhibition at 10 µM in the experiment on CAKI-1 turned out to be 17.6%; with NCI-H226, 3.95%.

Usually inhibition stands for the relative decrease from the control value, in per cent.
